Results taken from patent US7291469B2, “Mutant met and uses therefor” (The Regents of the University of California, priority 2004, dated 2007).

Assays:
Met gene expression = Met gene expression by semi-quantitative RT-PCR under hypoxia mimic; assay type: cell-based; settings: two canine OSA cell lines
Excerpt: To evaluate the effects of hypoxia on Met gene expression, we cultured two different canine OSA cell lines in the presence of cobalt chloride, an agent that mimics hypoxia. […] Given the substantial data indicating a role of Met in a variety of human cancers, it is likely that dysregulation of Met will play a similar role in canine cancers.

canine OSA cells = assay: Scattering and migration of canine OSA cells under growth factor deprivation with HGF; assay type: cell-based; settings: medium without fetal bovine serum, HGF added
Excerpt: To evaluate the ability of OSA cells to scatter and migrate, we cultured cells in medium containing fetal bovine serum or no fetal bovine serum (stressful condition), then stimulated with HGF. The OSA cells began to show evidence of morphology change (scattering) upon growth factor deprivation.

canine Met = assay: Met phosphorylation in canine tumor cell lines after rhHGF stimulation; assay type: cell-based
Sequence of canine Met (Q75ZY9 25-308 limits assumed): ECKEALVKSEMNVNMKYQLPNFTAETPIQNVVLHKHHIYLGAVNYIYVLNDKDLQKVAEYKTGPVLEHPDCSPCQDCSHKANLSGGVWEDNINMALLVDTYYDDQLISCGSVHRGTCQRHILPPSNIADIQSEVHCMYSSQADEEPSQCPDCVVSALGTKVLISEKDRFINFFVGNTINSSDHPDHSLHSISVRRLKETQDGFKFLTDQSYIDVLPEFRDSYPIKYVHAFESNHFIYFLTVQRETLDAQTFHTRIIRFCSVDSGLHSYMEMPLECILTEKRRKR
Sequence of canine Met (Q75ZY9 309-516 limits assumed): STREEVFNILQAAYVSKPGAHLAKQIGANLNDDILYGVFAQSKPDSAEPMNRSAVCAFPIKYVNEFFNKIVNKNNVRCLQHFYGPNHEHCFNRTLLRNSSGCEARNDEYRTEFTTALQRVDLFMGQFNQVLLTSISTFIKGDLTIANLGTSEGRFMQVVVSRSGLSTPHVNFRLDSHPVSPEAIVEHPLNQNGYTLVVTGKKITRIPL
Method: It is possible that this mutation results in the basal phosphorylation of Met in this cell line.
To determine whether HGF stimulation of canine Met induces appropriate Met autophosphorylation and downstream signal transduction, Met expressing tumor cell lines were treated with recombinant human HGF and the phosphorylation of Met on several specific tyrosines as well as phosphorylation of downstream signaling components were evaluated. […] It was then necessary to determine whether all critical tyrosine residues were phosphorylated after rhHGF exposure, as it was possible that the recombinant human protein was only inducing partial or incomplete signal transduction. […] Although this could be attributed to autocrine HGF and HGFA production, the D17 cell line also has the D544N mutation.

Gab-1, Erk1/2, and Akt = assay: Phosphorylation of downstream signal transduction components Gab-1, Erk1/2 and Akt after rhHGF stimulation; assay type: cell-based, canine
Excerpt: The activation of downstream signal transduction components Gab-1, Erk1/2, and Akt were then examined. […] It is possible that in these cases, other growth factor pathways contribute to this high level of basal phosphorylation.

[1] = tested on: NIH-3T3 cells stably transfected with canine Met constructs; assay: Gap migration assay in NIH-3T3 cells stably transfected with canine Met constructs; assay type: cell-based; settings: R988C, M1251T, D544N, G966S Met lines; 50 ng/ml; 24 hours
Method: Cells were allowed to grow to confluence in tissue culture, then defects were created manually to create a “gap” in the cells. The cells were then left in medium alone or treated with recombinant human HGF (rhHGF) at 50 ng/ml. Cells were also treated with a Met inhibitor in the absence or presence of rhHGF. Cultures were evaluated 24 hours later by staining the cells with crystal violet and digital imaging.

[Cl][Co][Cl] [cobalt chloride]
Met gene expression (Met gene expression): upregulation of Met gene expression

rhHGF: recombinant human hepatocyte growth factor, the ligand for Met
morphology change (scattering) (canine OSA cells): further enhanced | phosphorylation of Met tyrosines 1003, 1230/34/35, 1349 and 1365 (canine Met; OSA8 canine OSA cell line): all phosphorylated appropriately | concentration of maximal stimulation of Met phosphorylation (canine Met; canine OSA cell lines): 50 ng/mL | phosphorylation of canine Met (canine Met; canine OSA cell lines): induced phosphorylation of canine Met in all cell lines tested in a dose dependent fashion | Erk and Akt phosphorylation (Gab-1, Erk1/2, and Akt; Mel 3 and Mel 8 cell lines): inducible Erk and Akt phosphorylation | Gab-1 phosphorylation (Gab-1, Erk1/2, and Akt; each of the canine cell lines tested): Gab-1 was phosphorylated | migration compared to NIH-3T3 expressing wild-type Met [1]: markedly increased
